The source of these data is patent publication US7153865B2, “N-type calcium channel antagonists for the treatment of pain” (Astrazeneca AB, priority 2001, dated 2006).

pIC50: −log10 of the molar value.

The test system of assay [1] is formalin-induced nocifensive behaviours. Briefly: Formalin test. Particulars: dose 60, time 40, route IP (units of dose and time not given). Format: in vivo, rats.
A further assay has as its target N-type calcium channel (Homo sapiens, UniProt Q00975). The experiment in a line: N-channel FLIPR (Fluorescent Laser Imaging Plate Reader) assay. It counts as cell-based. Particulars: differentiated IMR32 cells, 80 mM K+ stimulus; unit inferred.
A further assay has as its system NK-1 receptor. Particulars: phenylbenzoquinone-induced writhing and formalin test; compared with morphine; cited from earlier work.

N-type calcium channel, sequence (Q00975 whole entry): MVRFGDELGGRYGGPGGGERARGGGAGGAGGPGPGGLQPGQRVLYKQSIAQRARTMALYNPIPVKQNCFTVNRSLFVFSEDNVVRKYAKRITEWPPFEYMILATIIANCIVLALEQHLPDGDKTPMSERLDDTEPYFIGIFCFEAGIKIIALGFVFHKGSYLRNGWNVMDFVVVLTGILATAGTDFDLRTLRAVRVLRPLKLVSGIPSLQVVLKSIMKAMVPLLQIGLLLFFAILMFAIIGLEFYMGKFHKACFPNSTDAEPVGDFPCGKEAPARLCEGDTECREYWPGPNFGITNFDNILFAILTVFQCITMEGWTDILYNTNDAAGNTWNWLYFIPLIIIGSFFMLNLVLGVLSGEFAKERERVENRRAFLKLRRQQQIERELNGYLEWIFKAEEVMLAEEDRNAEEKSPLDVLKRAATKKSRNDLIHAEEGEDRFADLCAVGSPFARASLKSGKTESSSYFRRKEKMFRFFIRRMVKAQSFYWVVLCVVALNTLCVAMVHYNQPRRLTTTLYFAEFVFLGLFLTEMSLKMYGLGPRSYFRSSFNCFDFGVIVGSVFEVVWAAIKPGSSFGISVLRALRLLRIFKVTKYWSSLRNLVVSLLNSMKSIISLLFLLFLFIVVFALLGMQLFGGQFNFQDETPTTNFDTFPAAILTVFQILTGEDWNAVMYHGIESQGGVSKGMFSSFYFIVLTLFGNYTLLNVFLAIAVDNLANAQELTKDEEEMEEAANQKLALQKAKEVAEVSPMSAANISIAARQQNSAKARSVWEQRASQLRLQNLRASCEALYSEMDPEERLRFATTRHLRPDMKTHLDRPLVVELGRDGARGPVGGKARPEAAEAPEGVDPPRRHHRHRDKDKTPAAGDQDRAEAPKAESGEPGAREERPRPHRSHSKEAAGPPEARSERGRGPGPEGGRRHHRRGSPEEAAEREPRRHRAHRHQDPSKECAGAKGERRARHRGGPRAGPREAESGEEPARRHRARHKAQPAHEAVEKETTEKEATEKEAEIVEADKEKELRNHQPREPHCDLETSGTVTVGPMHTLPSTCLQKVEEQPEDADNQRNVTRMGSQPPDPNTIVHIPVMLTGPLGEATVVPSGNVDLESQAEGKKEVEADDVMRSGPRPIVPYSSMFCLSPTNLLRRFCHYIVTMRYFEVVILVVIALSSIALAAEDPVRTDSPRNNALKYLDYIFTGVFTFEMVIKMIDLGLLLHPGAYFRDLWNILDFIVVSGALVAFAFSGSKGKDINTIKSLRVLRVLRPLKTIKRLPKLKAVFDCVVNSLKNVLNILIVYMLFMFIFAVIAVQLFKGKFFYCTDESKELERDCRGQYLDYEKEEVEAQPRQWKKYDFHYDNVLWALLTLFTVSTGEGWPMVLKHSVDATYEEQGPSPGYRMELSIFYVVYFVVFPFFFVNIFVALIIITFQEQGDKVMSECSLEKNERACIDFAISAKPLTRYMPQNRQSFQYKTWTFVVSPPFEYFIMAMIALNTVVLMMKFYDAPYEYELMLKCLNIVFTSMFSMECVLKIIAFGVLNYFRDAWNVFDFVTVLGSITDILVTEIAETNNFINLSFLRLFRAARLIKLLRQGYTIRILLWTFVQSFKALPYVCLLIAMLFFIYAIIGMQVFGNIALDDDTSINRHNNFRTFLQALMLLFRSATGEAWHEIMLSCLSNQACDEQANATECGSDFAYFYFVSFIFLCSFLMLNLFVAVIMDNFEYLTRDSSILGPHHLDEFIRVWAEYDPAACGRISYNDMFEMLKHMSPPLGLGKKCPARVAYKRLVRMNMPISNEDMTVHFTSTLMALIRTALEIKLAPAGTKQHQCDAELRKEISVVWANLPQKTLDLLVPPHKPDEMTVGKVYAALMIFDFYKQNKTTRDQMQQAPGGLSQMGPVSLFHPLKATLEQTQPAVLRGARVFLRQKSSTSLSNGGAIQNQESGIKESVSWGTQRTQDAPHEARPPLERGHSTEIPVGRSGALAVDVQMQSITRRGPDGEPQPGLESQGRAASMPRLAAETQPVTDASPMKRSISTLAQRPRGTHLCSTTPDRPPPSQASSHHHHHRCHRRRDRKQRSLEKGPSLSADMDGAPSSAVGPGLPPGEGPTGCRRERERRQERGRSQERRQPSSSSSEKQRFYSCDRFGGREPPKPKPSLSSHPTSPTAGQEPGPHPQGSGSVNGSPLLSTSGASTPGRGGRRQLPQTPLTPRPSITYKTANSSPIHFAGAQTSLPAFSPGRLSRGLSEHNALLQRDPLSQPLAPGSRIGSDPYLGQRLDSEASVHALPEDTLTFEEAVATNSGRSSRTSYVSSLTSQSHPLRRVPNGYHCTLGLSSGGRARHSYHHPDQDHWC
N-type calcium channel, sequence (P54284 whole entry partner): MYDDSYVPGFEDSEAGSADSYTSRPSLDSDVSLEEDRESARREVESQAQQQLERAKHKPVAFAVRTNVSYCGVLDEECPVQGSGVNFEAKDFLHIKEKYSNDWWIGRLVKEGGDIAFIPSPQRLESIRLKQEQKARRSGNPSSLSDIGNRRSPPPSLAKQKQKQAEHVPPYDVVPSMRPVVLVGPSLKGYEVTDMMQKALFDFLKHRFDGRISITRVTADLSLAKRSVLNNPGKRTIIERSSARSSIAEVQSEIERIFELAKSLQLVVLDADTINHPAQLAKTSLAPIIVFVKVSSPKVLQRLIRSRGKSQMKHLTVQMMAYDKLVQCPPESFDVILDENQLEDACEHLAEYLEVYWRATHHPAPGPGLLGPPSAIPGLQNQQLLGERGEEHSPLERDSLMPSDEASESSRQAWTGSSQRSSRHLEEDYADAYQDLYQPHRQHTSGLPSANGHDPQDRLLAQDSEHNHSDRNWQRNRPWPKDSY
N-type calcium channel, sequence (P54289 25-956 partner limits assumed): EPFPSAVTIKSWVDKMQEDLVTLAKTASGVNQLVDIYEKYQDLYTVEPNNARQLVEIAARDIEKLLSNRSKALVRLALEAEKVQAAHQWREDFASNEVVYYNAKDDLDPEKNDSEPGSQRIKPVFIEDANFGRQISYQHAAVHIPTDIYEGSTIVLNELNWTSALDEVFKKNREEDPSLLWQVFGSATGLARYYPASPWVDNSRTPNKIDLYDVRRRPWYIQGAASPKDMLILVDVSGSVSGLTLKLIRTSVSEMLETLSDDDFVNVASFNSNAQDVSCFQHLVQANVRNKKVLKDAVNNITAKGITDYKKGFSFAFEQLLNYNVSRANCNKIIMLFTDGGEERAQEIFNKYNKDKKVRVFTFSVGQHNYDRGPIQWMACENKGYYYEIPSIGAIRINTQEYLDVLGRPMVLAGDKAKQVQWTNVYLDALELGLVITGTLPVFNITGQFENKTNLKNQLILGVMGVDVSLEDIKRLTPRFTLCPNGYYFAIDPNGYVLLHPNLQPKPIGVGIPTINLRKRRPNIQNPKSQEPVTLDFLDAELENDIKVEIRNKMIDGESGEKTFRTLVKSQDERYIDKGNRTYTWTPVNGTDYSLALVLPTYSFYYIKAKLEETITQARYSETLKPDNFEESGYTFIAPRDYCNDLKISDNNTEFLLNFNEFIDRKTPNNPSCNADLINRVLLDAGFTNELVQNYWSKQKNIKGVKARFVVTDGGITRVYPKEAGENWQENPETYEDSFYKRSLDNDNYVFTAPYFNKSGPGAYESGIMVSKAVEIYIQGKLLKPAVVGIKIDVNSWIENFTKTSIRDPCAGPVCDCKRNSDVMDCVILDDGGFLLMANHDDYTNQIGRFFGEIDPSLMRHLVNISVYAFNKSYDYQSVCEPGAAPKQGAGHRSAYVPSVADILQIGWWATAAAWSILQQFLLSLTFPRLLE
N-type calcium channel, sequence (P54289 957-1103 partner limits assumed): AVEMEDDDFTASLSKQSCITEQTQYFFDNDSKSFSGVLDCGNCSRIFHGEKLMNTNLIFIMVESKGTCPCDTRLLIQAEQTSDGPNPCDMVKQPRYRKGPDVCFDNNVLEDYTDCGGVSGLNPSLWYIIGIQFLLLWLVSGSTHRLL

On to `Clc1ccc(Nc2cc(Nc3ccccc3N3CCOCC3)nc3ccccc23)cc1Cl` [Example 2, N4-(3,4-Dichloro-phenyl)-N2-(2-morpholin-4-yl-phenyl)-quinoline-2,4-diamine], for which the “Formalin test % inhibition (dose, time route)” value in assay [1] is reported as 42 (60, 40, IP) %.

In general, pIC50 refers to the IC50 on a negative log10 scale, so that one unit is a factor of ten. In the case of `Nc1ccccc1Nc1cc(Nc2ccc(Cl)c(Cl)c2)c2cccc(F)c2n1` [Example 14, N2-(2-Amino-phenyl)-N4-(3,4-dichloro-phenyl)-8-fluoro-quinoline-2,4-diamine], on N-type calcium channel, the pIC50 is 5.40.

On to `Nc1ccccc1Nc1cc(Nc2ccc(Cl)c(Cl)c2)c2ccccc2n1` [Example 27, N2-(2-amino-phenyl)-N4-(3,4-dichloro-phenyl)-quinoline-2,4-diamine], for which, at N-type calcium channel, the pIC50 is 5.01.

On to `COc1ccccc1CC(=N)N1C[C@@H]2C(=O)CCC(c3ccccc3)(c3ccccc3)[C@@H]2C1` [RP 67,580], for which, in the assay with NK-1 receptor, the “analgesia in chemo-nociception tests” value is on record as “produced analgesia with potency comparable to that of morphine”.
